Source: a compilation of properties of binary mixtures (doi:10.1016/j.molliq.2022.118621)

Test: xn = mol fraction of the nth substance listed
Conditions: 100 kPa

CC(O)C(=O)[O-].CCOCCn1cc[n+](C)c1 + O
Conditions	electrical conductivity [S/m]	viscosity [mPa·s]
288.15 K, x1 = 0.8091	0.243	86.2
288.15 K, x1 = 0.8366	0.214	93.5
288.15 K, x1 = 0.87	0.185	103
288.15 K, x1 = 0.9014	0.157	110.4
288.15 K, x1 = 0.9386	0.127	119.7
288.15 K, x1 = 1	0.082	132.7
293.15 K, x1 = 0.87	0.229	80.3
293.15 K, x1 = 0.9386	0.172	90.8
293.15 K, x1 = 1	0.123	99.1
298.15 K, x1 = 0.8091	0.336	52.9
298.15 K, x1 = 0.8366	0.306	56.21
298.15 K, x1 = 0.9014	0.248	63.93
298.15 K, x1 = 0.9386	0.218	68.22
298.15 K, x1 = 1	0.171	74.1
303.15 K, x1 = 0.8091	0.389	41.86
303.15 K, x1 = 0.8366	0.358	44.21
303.15 K, x1 = 0.87	0.33	47.25
303.15 K, x1 = 0.9014	0.302	49.83
303.15 K, x1 = 1	0.228	56.72
308.15 K, x1 = 0.9014	0.397	37.68
308.15 K, x1 = 0.9386	0.368	40.01
308.15 K, x1 = 1	0.314	43.14
313.15 K, x1 = 0.8091	0.572	25.13
313.15 K, x1 = 0.8366	0.544	26.5
313.15 K, x1 = 0.87	0.516	28.21
313.15 K, x1 = 0.9014	0.488	29.62
313.15 K, x1 = 0.9386	0.463	31.44
313.15 K, x1 = 1	0.418	33.82
318.15 K, x1 = 0.8091	0.713	18.65
318.15 K, x1 = 0.8366	0.681	19.82
318.15 K, x1 = 0.87	0.648	21.2
318.15 K, x1 = 0.9386	0.587	24.02
318.15 K, x1 = 1	0.536	26.08

CC(=O)[O-].CCOCCn1cc[n+](C)c1 + O
Conditions	electrical conductivity [S/m]	viscosity [mPa·s]
288.15 K, x1 = 0.8294	0.352	41.8
288.15 K, x1 = 0.852	0.313	42.73
288.15 K, x1 = 0.8822	0.271	43.97
288.15 K, x1 = 0.9125	0.232	45.18
288.15 K, x1 = 0.9447	0.195	46.51
288.15 K, x1 = 1	0.13	48.34
293.15 K, x1 = 0.8294	0.415	33.23
293.15 K, x1 = 0.852	0.377	33.91
293.15 K, x1 = 0.8822	0.329	34.81
293.15 K, x1 = 1	0.18	38.07
298.15 K, x1 = 0.8294	0.463	26.38
298.15 K, x1 = 0.852	0.427	26.91
298.15 K, x1 = 0.8822	0.384	27.59
298.15 K, x1 = 0.9125	0.347	28.28
298.15 K, x1 = 1	0.247	30.01
303.15 K, x1 = 0.8294	0.551	20.99
303.15 K, x1 = 0.852	0.513	21.43
303.15 K, x1 = 0.8822	0.471	22
303.15 K, x1 = 0.9125	0.431	22.55
303.15 K, x1 = 1	0.329	23.97
308.15 K, x1 = 0.8294	0.674	16.9
308.15 K, x1 = 0.852	0.633	17.25
308.15 K, x1 = 0.9125	0.544	18.18
308.15 K, x1 = 0.9447	0.506	18.66
308.15 K, x1 = 1	0.435	19.35
313.15 K, x1 = 0.8294	0.804	13.77
313.15 K, x1 = 0.9125	0.676	14.84
313.15 K, x1 = 0.9447	0.638	15.22
318.15 K, x1 = 0.8294	0.985	11.31
318.15 K, x1 = 0.852	0.941	11.54
318.15 K, x1 = 0.8822	0.887	11.83
318.15 K, x1 = 0.9125	0.843	12.15
318.15 K, x1 = 0.9447	0.797	12.45
318.15 K, x1 = 1	0.719	12.9
